Results on one substance are retold here after publication PMC11845331, “Teicoplanin pharmacokinetics in critically ill patients on extracorporeal organ support: a retrospective analysis” (Intensive Care Medicine Experimental, 2025).

For series [1] the following is noted: human, in vivo; cited from earlier work. How it is done: Chen et al. focused on the effect of applying high loading doses in 11 patients receiving veno-arterial ECMO treatment. In their study, four loading doses greater than 10 mg/kg were applied within the first 72 h. Before the application of the maintenance dose, the authors reported adequate therapeutic TCtrough for severe infections in more than 90% of patients. In our study, the loading dose of 400 mg was markedly lower, which presumably might have contributed to our observed low TCtrough in a significant proportion of patients particularly during the first days of ECMO su ...

Series [2] is described as follows: Adverse reactions to teicoplanin in critically ill patients on ECMO. The note with it: all 23 included patients on ECMO, i.v. teicoplanin. The series is classed as in vivo, human. An excerpt:
The primary outcome of this study was the proportion of patients with insufficient or toxic TCtrough during ECMO support. Secondary outcomes included the observed TCtrough and teicoplanin dosages over time during ECMO support and dependent on the presence of continuous renal replacement therapy (CRRT), as well as the occurrence of side effects (such as hemotoxicity, hepatotoxicity or skin changes) leading to discontinuation of teicoplanin treatment.

A short description of series [3]: Teicoplanin plasma trough levels (TCtrough) from therapeutic drug monitoring during ECMO support. In kind it is in vivo, human. An excerpt: This single-center retrospective study included critically ill, adult (> 18 years old) patients hospitalized at the tertiary intensive care unit (ICU) of the University Hospital Zurich, Switzerland, an academic teaching hospital. The local ICU provides care for patients from all medical and surgical fields. All patients undergoing extracorporeal membrane oxygenation (ECMO) support and intravenous teicoplanin treatment were eligible for study inclusion from 1.1.2010 to 19.07.2023. Patients were included irrespective of the admitting diagnosis and independent of the ECMO configuration (veno-venous, veno-arterial or others with, e.g., multiple cannulation sites). Patients aged < 18 years were excluded. Other exclusion criteria were documented verbal or written refusal to participate in this study. Patients were also excluded if teicoplanin was not administered for any portion of the ECMO treatment period (e.g., if given only before or after the ECMO treatment period) or if no trough levels were obtained during ECMO support.
Data were collected with the use of two in-hospital electronic medical records databases, the KISIM (Cistec AG, Zurich, Switzerland) and the Patient Data Management System (PDMS) MetaVision (iMDsoft, Dusseldorf, Germany). Collected data included baseline demographic data (including age, gender and body mass index), comorbidities (including cardiovascular conditions, pulmonary diseases, renal insufficiency) and immunosuppression (including patients with prior organ transplantation), ICU admitting diagnoses, and the indication for teicoplanin treatment (empiric vs. targeted). Moreover, ICU treatment modalities and scores (e.g., organ support and scores such as the Sequential Organ Failure Assessment Score SOFA and the Simplified Acute Physiology Score SAPS II) and patient outcomes (including ICU length of stay and survival) were gathered. Teicoplanin trough levels and dosages over time were obtained from the medical records (see below).
In our hospital, intravenous teicoplanin is normally administered for empiric or targeted coverage of Gram-positive microorganisms. The standard loading dose is 400 mg infused at 0 h, 12 h and 24 h. Thereafter, 400 mg are administered every 24 h. Measurement of teicoplanin trough levels (TCtrough) is recommended prior to the fifth dose and this also applies to dose adjustments. In case of renal impairment, TCtrough levels are recommended to be measured prior to the second dose, in order to detect potential overdosing early. If the estimated glomerular filtration rate (eGFR) is subnormal, teicoplanin starting dosage is adjusted (eGFR 40–60 ml/min: 200 mg/24 h, eGFR < 40 ml/min: 100 mg/24 h).
In case the patient is undergoing continuous renal replacement therapy, 200–400 mg teicoplanin every 24 h are recommended. In general, TCtrough of 10–30 mg/l are targeted. TCtrough < 10 mg/l are considered insufficient, whereas TCtrough > 30 mg/l are considered toxic. In case TCtrough are not within the target ranges, dose adaptations can be prescribed by the clinicians in charge. In case a measured TCtrough is toxic (i.e., > 30 mg/l), no more teicoplanin is administered, however TCtrough are measured on a daily basis. […] After increasing the dose, subsequent teicoplanin levels are again measured prior to the fifth dose or prior to the second dose in case of renal impairment, respectively. […]

The conditions of series [4]: cited from earlier work. An excerpt: Recently, more attention has been drawn to antimicrobial serum levels and dosing in patients receiving ECMO treatment. While marked concentration variability during ECMO treatment has been observed for many common antimicrobials used in the ICU including meropenem, cefepime, ceftriaxone, piperacillin or vancomycin [14], data for teicoplanin are scarce so far.

Regarding Teicoplanin, in series [1], the “Proportion of patients with adequate therapeutic TCtrough for severe infections before the maintenance dose” value is “more than 90%”. In series [2], the “Drug reactions or other adverse reactions to teicoplanin” value was “no drug reactions or other adverse reactions to teicoplanin were observed”. For the same substance, the “TCtrough mean difference, ECMO alone vs ECMO and CRRT” value in series [3] (95% CI 6–13, p < 0.0001) was found to be 9 mg/L. For the same substance, the “Influence of ECMO circuit configuration (veno-venous vs. veno-arterial) on TCtrough over time” value in series [3] (Fig. 3) is given as “did not have a significant influence”. Besides, in series [3] (critically ill adult ICU patients, i.v. teicoplanin, plasma trough level, ECMO plus continuous renal replacement therapy, median [IQR 5–16]), the “TCtrough in patients with ECMO and CRRT” value stood at 9 mg/L. The “TCtrough in patients with ECMO treatment alone” value in series [3] (critically ill adult ICU patients, i.v. teicoplanin, plasma trough level, ECMO without CRRT, median [IQR 12–24 mg/l]) amounted to 18 mg/L. Further, the “TCtrough mean difference in relation to oxygenator changes (pre vs. post)” value in series [3] (five cases with available data, 95% CI –12 to 15, p = 0.8108) came to 1.5 mg/L. Also, the “Loss of teicoplanin within the ECMO circuit” value in series [4] (ex vivo blood-primed ECMO circuits) is given as “significant loss of teicoplanin”. Further, the “Lowering of central volume of distribution with ECMO treatment” value in series [4] (population pharmacokinetic model, 10 adult ECMO patients) is given as 34%.
